According to patent publication US7553826B2, “Cytarabine monophosphate prodrugs” (Metabasis Therapeutics, Inc., priority 2002, dated 2009):
Values after ≈ are worked out from the molar mass of the structure shown. Values joined by “and” are separate entries in the source; they are usually repeats but may differ in a detail not shown here. Equal values may be shown once.

Experiments:
[1] = Single dose i.p. bolus liver levels / liver targeting in mice
Description: At specified times post injection, mice were anesthetized and exsanguinated via cardiac puncture. The whole liver was removed, and snap-frozen in liquid nitrogen, and homogenized using a Polytron homogenizer PT 10/35 (Brinkmann Instruments, Westbury, N.Y.) in 3 volumes of 10% (v/v) perchloric acid (PCA). After a 5 min centrifugation at 2,500×g, 1 mL of supernatant was neutralized using 0.3 mL 3 M KOH/3 M KHCO3 and mixed thoroughly. Samples were then centrifuged for 5 minutes and resulting supernatants were treated with periodate in order to remove endogenous ribonucleotides which otherwise might interfere with araCTP detection. […] Resulting samples were analyzed by HPLC as described below.
To measure bone marrow araCTP, the bone marrow samples were flushed from the marrow cavities of femurs with 1.2 ml saline into pre-weighed Eppendorf tubes. After centrifugation for 20-30 seconds (Eppendorf microfuge, 14,000 rpm) and removal of the supernatant, 12 volumes of 3% PCA (v/v) were added to the bone marrow cell pellets. Samples were then vortexed until the pellet was well dissolved and centrifuged as above for 10 min. Ninety μL of extracted supernatant was neutralized to pH 7-8 using 30 μL 1 M KOH/1 M KHCO3 and again centrifuged. Resulting supernatants were periodate-treated as above.
Samples (50 μL) were injected onto the column in 70% 10 mM ammonium phosphate buffer and 30% 1 M ammonium phosphate buffer, both at pH 3.5 and containing 6% ethanol. […] A standard curve was prepared by adding known amounts of araCTP into PCA extracts from control liver or bone marrow prior to neutralizing, and preparing HPLC samples accordingly.
To obtain plasma, blood was transferred to heparinized micro-collection tubes and centrifuged in an Eppendorf microfuge at 14,000 rpm for 2 minutes. Resulting plasma was collected, placed on dry ice, and subsequently stored at −20° C. On the day of analysis, proteins were precipitated by adding 1 mL acetonitrile to 100 μL of plasma. After 10 min centrifugation (Eppendorf microfuge, 14,000 rpm), the supernatant was removed and dried in a Savant SpeedVac Plus SC110A. Samples were reconstituted with 110 μL of mobile phase buffer (20 mM KH2PO4, pH 4.5), sonicated for 5 min, and centrifuged for 30 seconds. […] AraC and prodrugs were detected by absorbance at 280 nm and quantitated using standard curves obtained with spiked plasma samples processed as above.
Results are expressed as mean±standard error of the mean. Data were analyzed by repeated measures ANOVA, followed by the Tukey HSD post-hoc test for comparisons at individual time points when appropriate. A p-value of less than 0.05 was considered statistically significant. Dotted lines in figures indicate LOQ (limit of quantitation) using the indicated HPLC method.
(§1) In those studies, liver, plasma and bone marrow samples were obtained at necropsy to evaluate liver targeting.
(§2) Results are expressed as mean±standard error of the mean. When appropriate, AUC was calculated from time zero to the last time-point of the study. Liver targeting indices (LTIs) were calculated by dividing the liver araCTP AUC by the AUC for plasma araC (plasma LTI) or by the AUC for bone marrow araCTP (bone marrow LTI) for each compound. For the continuous infusion studies, the steady state araCTP levels were divided by the steady state plasma araC levels.

[2] = Single IP injection liver targeting in rat; type: in vivo; conditions: 100 mg CE/kg single IP injection
Aqueous stability = type: physicochemical; conditions: 100 mM citrate, pH5.0, 37° C, 50 μM
Description: Diluted solutions (50 μM) were incubated at 37° C. in a Fisher Scientific dry bath incubator (catalog # 11-718-2) with samples collected every 24 hours and stored at −80° C. Plasma samples (100 μL) were quenched with 1 mL of acetonitrile. […] Samples were resuspended in 120 μL of mobile phase buffer before HPLC injection.
Samples were analyzed on an HP1090 or HP1100 (Hewlett Packard) HPLC using a C-18 Alltech Econosphere column, 150 mm×4.6 mm (catalog # 70065), with a C-18 Alltech Econosphere guard column, 7.5 mm×4.6 mm (catalog # 96121). Samples were eluted with a methanol gradient: 0% for 5 minutes, then increasing to 10% at 10 minutes, 30% at 20 minutes, and 60% at 25 minutes. The column was allowed to equilibrate in 0% methanol for 10 minutes before the next injection. The flow rate was 1 mL/minute with a column temperature of 40° C. Prodrugs eluted around 19.5 minutes and were monitored by UV absorbance at 280 nm. For prodrugs in aqueous conditions, the same method was employed except the methanol gradient was as follows: 0% for 5 minutes, increasing to 10% at 10 minutes, and 30% at 20 minutes with prodrug eluting around 20 minutes.

Solubility = type: physicochemical
Description: With each of the three buffer systems, saturating solutions of Compound A and Compound B were prepared as follows. […] The resultant vials were sealed and equilibrated by tumbling at 25° C. for a minimum of 24 h. At the end of the incubation period, prodrug that was not in solution was removed from the samples by filtration through a 0.45 μm pore size nylon syringe filter. These diluted samples were assayed by the HPLC method of example E.

[3] = Liver araCTP and liver targeting with continuous i.v. infusion in rats
Description: A saline filled blunt PE-50 tubing catheter (Intramedic, Becton Dickinson, Sparks, Md.) was inserted into the jugular vein, exteriorized between the scapulae and connected to a swivel-tethering constant infusion system (Lomir Biomedical, Inc., Malone, N.Y. and Harvard Apparatus, Inc., South Natick, Mass.). The tubing was filled with heparinized saline and sealed, and the animals allowed to recover for one to seven days.
After the various durations of infusion the animals were anesthetized by intra-catheter injections of the anesthetic mix described above. Blood samples were obtained via cardiac puncture using a 23-gauge needle attached to a heparin coated 3 cc syringe.
as §1, §2

[4] = rats, 200 mg CE/kg/day continuous intravenous infusion

SMILES: Nc1ccn([C@@H]2O[C@H](CO[P@@]3(=O)OCC[C@@H](c4ccncc4)O3)[C@@H](O)[C@@H]2O)c(=O)n1 [Compound A, 2(1H)-Pyrimidinone, 4-amino-1-[5-O-[(2R,4S)-2-oxido-4-(4-pyridinyl)-1,3,2-dioxaphosphorinan-2-yl]-β-D-arabinofuranosyl]]
- Liver araCTP Peak @ 1 hr ([1]; Mouse, 100 mg (cytarabine equivalents)/kg single IP injection): 96 nmol/g and 70 nmol/g
- LTI (Liver/plasma) ([1]; Mouse, 100 mg CE/kg single IP, liver araCTP AUC / plasma araC AUC): 27 nmol/g/μM and 19.5 nmol/g/μM
- reduction of peripheral exposure (liver targeting) ([1]; administered intraperitoneally): ~20 fold
- liver araCTP levels relative to Compound B ([1]; mice, bolus i.p. injection): ~2 fold
- plasma araC levels relative to Compound B ([1]; mice, bolus i.p. injection): ~2 fold
- liver araCTP peak at 60 minutes post injection ([1]; mice, single i.p. bolus, 100 mg/kg CE): 69.89 ± 6.37 nmol/g
- LTI (Liver/plasma) [2]: 19.2 nmol/g/μM
- Liver araCTP Peak @ 1 hr [2]: 267 nmol/g
- t90 in aqueous solution (Aqueous stability): 2 days
- solubility (Solubility; 0.5 M Pi pH 8.0 buffer, 25° C): 2900 µg/mL (≈ 6.59 mM)
- solubility (Solubility; 0.5 M citrate pH 4.0, 25° C): 45800 µg/mL (≈ 104 mM)
- solubility (Solubility; 0.5 M citrate pH 7.0, 25° C): 2600 µg/mL (≈ 5.9 mM)
- reduction of peripheral exposure (liver targeting) ([3]; administered by continuous intravenous infusion): ~10 fold
- LTI @ 24 hrs (Liver/plasma) [3, 4]: 7.5 nmol/g/μM
- Liver araCTP 24 hr [3, 4]: 12.0 nmol/g
- Liver araCTP @ 4 hr [3, 4]: 12.8 nmol/g
- Plasma Prodrug steady state [3, 4]: 40 to 50 µM
- Plasma araC steady state [3, 4]: ~1.6 µM
- steady state liver araCTP levels by 4 hours ([3]; rats, continuous infusion 200 mg/kg/24 hours): 12.84 ± 1.50 nmol/g
- average liver araCTP for the remaining 44 hours ([3]; rats, continuous infusion 200 mg/kg/24 hours, 48 hr): 13 ± 1 nmol/g
